The record followed here is ChEMBL document CHEMBL5214925, “Dual-target inhibitors of indoleamine 2, 3 dioxygenase 1 (Ido1): A promising direction in cancer immunotherapy” (Eur J Med Chem, 2022).

Data set [1] in a line: Antitumor activity against Lewis lung carcinoma cell in C57BL/6 mouse assessed as tumor growth inhibition at 60 mg/kg relative to control. The format is functional. To be noted: C57BL/6, Lewis lung carcinoma, read-out: TGI.
In data set [2] the test system is CT26. The experiment in a line: Antitumor activity against mouse CT26 cells allografted in immunocompetent mouse assessed as tumor growth inhibition relative to control. Format: functional.
Data set [3] can be described thus: Antiproliferative activity against mouse Lewis lung carcinoma cell line. The format is functional, cell-based.
For data set [4], the system named is HCT-116. The experiment in a line: Antiproliferative activity against human HCT-116 cells. The format is functional, cell-based.
In data set [5] the test system is CT26. The experiment in a line: Antiproliferative activity against mouse CT26 cells. Format: functional, cell-based.
Data set [6] in a line: Antitumor activity against Lewis Lung carcinoma cells in mouse expressing IDO1 assessed as tumor growth inhibition relative to control. Format: functional.
Data set [7] deals with T1, Indoleamine 2,3-dioxygenase 1 (Homo sapiens, UniProt P14902). The experiment in a line: Inhibition of IDO1 (unknown origin).
Target sequence in this assay (P14902 whole entry): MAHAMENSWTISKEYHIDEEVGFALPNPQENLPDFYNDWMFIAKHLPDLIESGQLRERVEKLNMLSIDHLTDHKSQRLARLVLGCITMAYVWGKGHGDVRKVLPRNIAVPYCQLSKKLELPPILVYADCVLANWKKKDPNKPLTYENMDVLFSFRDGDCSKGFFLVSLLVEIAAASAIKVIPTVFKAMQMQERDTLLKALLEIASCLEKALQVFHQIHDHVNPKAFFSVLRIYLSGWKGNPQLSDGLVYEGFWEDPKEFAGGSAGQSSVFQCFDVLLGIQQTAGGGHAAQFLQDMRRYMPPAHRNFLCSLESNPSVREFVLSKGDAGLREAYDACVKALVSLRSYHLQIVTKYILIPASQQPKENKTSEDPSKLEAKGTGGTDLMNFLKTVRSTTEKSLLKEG
For data set [8], the target named is T1, Indoleamine 2,3-dioxygenase 1. The experiment in a line: Inhibition of IDO1 in human BT-549 cells. The format is cell-based. The following applies: pooled result: one value given for 2 cell lines, strains, targets or settings.
Target sequence in this assay (P14902 whole entry): as above
Data set [9] in a line: Cytotoxicity against human colon epithelial cells incubated for 24 hrs by CCK-8 assay. The format is functional, cell-based. The following applies: Epithelial cell.
The test system of data set [10] is HCT-116. The experiment in a line: Cytotoxicity against human HCT-116 incubated for 24 hrs by CCK-8 assay. Format: functional, cell-based. The following applies: HCT-116, 24 h.
Data set [11] is described as follows: Antitumor activity against mouse LL2 cells allografted in mouse model over expressing IDO1 assessed as tumor growth inhibition relative to control. The format is functional, Lewis lung carcinoma.
Data set [12] can be described thus: Antitumor activity against mouse HEPA1-6 cells allografted in mouse model over expressing TDO assessed as tumor growth inhibition relative to control. The format is functional.
Data set [13] can be described thus: Antitumor activity against mouse HEPA1-6 cells allografted in mouse model over expressing IDO1 assessed as tumor growth inhibition relative to control. The format is functional.
A short description of data set [14]: Antiproliferative activity against melanoma cells (unknown origin) subcutaneously xenografted in mouse model assessed as inhibition of cell growth rate at 100 mg/kg relative to control. The format is functional. The following applies: sc.
Data set [15] in a line: Antiproliferative activity against melanoma cells (unknown origin) subcutaneously xenografted in mouse model assessed as inhibition of cell growth rate at 50 mg/kg relative to control. The format is functional. To be noted: sc.
For data set [16], the target named is Tryptophan 2,3-dioxygenase (Homo sapiens, UniProt P48775). Put plainly: Inhibition of recombinant C-terminal His tagged TDO (unknown origin) expressed in Escherichia coli.
For data set [17], the target named is T1, Indoleamine 2,3-dioxygenase 1. The experiment in a line: Inhibition of recombinant N-terminal His tagged IDO1 (unknown origin) expressed in Escherichia coli incubated for 1.5 hrs by FULOstar OMEGA plate reader method.
Target sequence in this assay (P14902 whole entry): as above
The nature of data set [18]: Inhibition of TrxR in human HCT-116 cell lysate. The format is subcellular.
Data set [19] concerns the target T1, Indoleamine 2,3-dioxygenase 1. The experiment in a line: Inhibition of IDO1 in human HeLa cells. Format: cell-based.
Target sequence in this assay (P14902 whole entry): as above
For data set [20] the target is unchanged. Put plainly: Inhibition of human N-terminal His tagged recombinant IDO1 (5 to 403 residues) expressed in Escherichia coli BL21 (DE3).
Target sequence in this assay (P14902 whole entry): as above
Data set [21] is described as follows: Inhibition of rat liver TrxR incubated for 1 hr. Format: tissue-based.
Data set [22] has as its target Histone deacetylase 1 (Homo sapiens, UniProt Q13547). The experiment in a line: Inhibition of HDAC1 (unknown origin) using […] as substrate preincubated for 15 mins followed by substrate addition measured after 60 mins.
Data set [23] deals with T1, Indoleamine 2,3-dioxygenase 1. Put plainly: Inhibition of IDO1 (unknown origin) using L-tryptophan as substrate incubated for 10 mins.
Target sequence in this assay (P14902 whole entry): as above
For data set [24], the system named is A549. Put plainly: Cytotoxicity against human A549 cells by CCK-8 method. The format is functional, cell-based.
Data set [25] deals with CT26. Put plainly: Cytotoxicity against […] cells by CCK-8 method. Format: functional, cell-based. The following applies: Mus musculus.
For data set [26], the system named is CT26. Put plainly: Antitumor activity against mouse CT26 cells allografted in nude mouse assessed as reduction in tumor volume relative to control. Format: functional. More on the design: scale not given: the % may be the effect or the level left.
Data set [27] has as its system HCT-116. The experiment in a line: Cytotoxicity against human HCT-116 cells by CCK-8 method. The format is functional, cell-based.
For data set [28], the system named is HT-29. The experiment in a line: Cytotoxicity against human HT-29 cells by CCK-8 method. Format: functional, cell-based.
Data set [29] relates to HeLa. Put plainly: Cytotoxicity against human HeLa cells. Format: functional. The following applies: read-out: LC50 (the source's name).
Data set [30] concerns the target T1, Indoleamine 2,3-dioxygenase 1. The experiment in a line: Inhibition of human recombinant IDO1 in human HeLa cells incubated for 48 hrs. The format is cell-based.
The nature of data set [31]: Volume of distribution in Sprague-Dawley rat plasma. The format is ADME, cell-free.
A short description of data set [32]: Clearance in Sprague-Dawley rat plasma. The format is ADME, cell-free.
Data set [33] has as its system CT26. The experiment in a line: Antitumor activity against mouse CT26 cells allografted in mouse assessed as tumor growth inhibition at 50 mg/kg. Format: functional. The following applies: read-out: TGI.
In data set [34] the target is T1, Indoleamine 2,3-dioxygenase 1. Put plainly: Inhibition of IDO1 in human A-172 cells. Format: cell-based.
Data set [35] has the same target. The experiment in a line: Inhibition of IDO1 (unknown origin) using L-tryptophan as substrate at 10 uM incubated for 10 mins relative to control.
Target sequence in this assay (P14902 whole entry, looked up): as the sequence (P14902 whole entry) above

Sequence of Tryptophan 2,3-dioxygenase (P48775 whole entry): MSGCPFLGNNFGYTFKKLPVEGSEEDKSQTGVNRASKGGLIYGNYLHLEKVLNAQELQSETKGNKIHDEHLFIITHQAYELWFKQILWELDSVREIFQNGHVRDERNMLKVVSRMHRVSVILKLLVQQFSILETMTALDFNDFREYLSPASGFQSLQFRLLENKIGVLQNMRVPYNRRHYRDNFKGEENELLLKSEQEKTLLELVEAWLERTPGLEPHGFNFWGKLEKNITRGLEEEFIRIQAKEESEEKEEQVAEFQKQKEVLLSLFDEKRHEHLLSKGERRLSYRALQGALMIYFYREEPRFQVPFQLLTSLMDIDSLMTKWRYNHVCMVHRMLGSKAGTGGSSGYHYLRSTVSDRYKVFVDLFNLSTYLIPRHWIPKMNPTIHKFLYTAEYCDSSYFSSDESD
Sequence of Histone deacetylase 1 (Q13547 whole entry): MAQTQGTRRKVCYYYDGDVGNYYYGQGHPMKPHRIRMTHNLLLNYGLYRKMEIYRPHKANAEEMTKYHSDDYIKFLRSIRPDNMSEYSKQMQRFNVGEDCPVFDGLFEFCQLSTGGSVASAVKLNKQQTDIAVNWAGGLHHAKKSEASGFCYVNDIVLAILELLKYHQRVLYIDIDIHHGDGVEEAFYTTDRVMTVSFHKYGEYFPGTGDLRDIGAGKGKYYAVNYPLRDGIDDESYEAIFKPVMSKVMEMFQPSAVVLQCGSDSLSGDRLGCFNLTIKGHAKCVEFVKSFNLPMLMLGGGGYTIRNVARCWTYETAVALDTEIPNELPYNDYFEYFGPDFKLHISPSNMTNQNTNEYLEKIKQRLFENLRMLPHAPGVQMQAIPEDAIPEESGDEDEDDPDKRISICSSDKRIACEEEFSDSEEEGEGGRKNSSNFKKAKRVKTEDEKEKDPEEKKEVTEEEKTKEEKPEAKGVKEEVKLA

Turning to `NS(=O)(=O)NCCNc1nonc1/C(=N/O)Nc1ccc(F)c(Br)c1` [EPACADOSTAT], the inhibition in vivo at 60 mg/kg in data set [1] was found to be 68%. Besides, the TGI in data set [2] was 47.5%.

With `NC(CC(=O)O)Cc1c[nH]c2ccc(N(CCCl)CCCl)cc12` (stereo unspecified), the IC50 in [3] was found to be 23.7 µM; in data set [4], 23.7 µM; in data set [5] it was 23.7 µM; in [7], 14 µM. Moreover, the TGI in data set [6] is 63.8%.

With `Cc1ccc(C(=O)CC(=O)c2ccccc2OC(C)C)c(O)c1`, the IC50 in data set [8] is 10.8 µM.

Turning to `COc1cc(/C=C/C(=O)N2CCC=CC2=O)cc(OC)c1OC` [PIPLARTINE], the IC50 came to 46.9 µM in data set [9] and 6.38 µM in data set [10].

As for `O=C1c2cc(F)ccc2C(=O)c2c1nnn2-c1ccc(F)c(Cl)c1`, the figures for the TGI in data set [11], in [12] and in data set [13] were 62.5%, 80% and 80%, respectively.

On to `COc1cc(Nc2cc(NC(C)=O)cc3[nH]c(C(=O)O)cc23)cc(OC)c1OC`, for which the inhibition in vivo at 100 mg/kg in [14] worked out at 44.7%. Moreover, the inhibition in vivo at 50 mg/kg in data set [15] is 43.2%.

On to `O[C@@H](c1cn2cncc2cc1Cl)C1CCCCC1`, for which the values for the IC50 in data set [16] and in data set [17] were 0.029 µM and 0.0096 µM, respectively.

In the case of `O=C1C=CCCN1C(=O)/C=C/c1ccccc1-c1c[nH]cn1`, the IC50 in [18] came out at 4.22 µM; in data set [9], 42 µM; in [20], 0.084 µM; in data set [10], 0.55 µM; in [21], 7.89 µM. In addition, the midpoint of the response in data set [19], the EC50, lay at 1.41 µM.

Turning to `Cc1ccc2c(c1CCC(=O)NCCCCCC(=O)CNc1ccccc1N)C(=O)C(=O)C(C(C)C)=C2`, the IC50 came out at 0.46 µM in data set [22] and 0.73 µM in data set [23].

`O=C(NCCNc1nonc1/C(=N/O)Nc1ccc(F)c(Br)c1)c1cccc(N(CCCl)CCCl)c1`: the IC50 in [24] turned out to be 17 µM; in data set [25], 25 µM; in [27], 25 µM; in data set [28], 19 µM. Besides, the Activity in data set [26] came to 28.6%. Besides, the TGI in data set [2] is given as 58.2%. Besides, the CC50 in data set [29] came out at 39 µM. For the same compound, in [30], the EC50 was found to be 0.27 µM.

In the case of `OCCOCc1cn(CCNc2nonc2/C(=N/O)Nc2ccc(F)c(Br)c2)nn1`, the Vd in data set [31] worked out at 0.88 L/kg. This compound gave a clearance in data set [32] of 27.5 mL/min/kg. In addition, the inhibition in vivo at 50 mg/kg in [33] was found to be 69.7%.

With `Cn1cc(-c2ccc(NC(N)=O)cc2)c2ccc(F)cc21`, the values for the IC50 in data set [16] and in data set [17] were 0.078 µM and 0.049 µM, respectively.

Consider `NC(CC(=O)O)Cc1c[nH]c2cc(N(CCCl)CCCl)ccc12` (stereo unspecified), for which the IC50 was 63.9 µM in [3], 63.9 µM in data set [4], 63.9 µM in data set [5] and 227 µM in data set [7]. Moreover, in data set [6], the TGI is listed as 73.5%.

In data set [34], `CC1=C(CC(=O)c2sccc2Br)C(=O)c2ccccc2C1=O` came in with an IC50 of 37.7 µM.

`COc1ccccc1C(=O)CC(=O)c1ccc(C)cc1O` came in with an IC50 in data set [8] of 20.6 µM.

Consider `CC(C)=CCCc1c(C)ccc2c1C(=O)C(=O)C(C(C)C)=C2`, for which the inhibition in [35] is 85%.
